This passage reports IC50, half-life and fraction unbound results from US11691962B2 (eXIthera Pharmaceuticals, Inc., priority 2018, dated 2023).

The target in data set [1] is Factor XIa (Homo sapiens (Human), UniProt P03951). The data set can be described thus: Factor XIa enzyme inhibition assay (dose response, fluorogenic AMC substrate). Type of data set: biochemical. Conditions: read-out: hFXIa IC50. The method in brief:
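Fluorogenic progress curves (30 min, 1-min reads, 30° C) were recorded for 0.25 nM FXIa cleaving 50 μM Glp-Pro-Arg-AMC in Hepes pH 7.4 buffer with NaCl and Tween 20. Compounds were serially two-fold diluted, and IC50 was fitted with a Hill equation.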

The nature of data set [2]: Metabolic stability in dog hepatocytes. Type of data set: in vitro ADME. The conditions noted are these: pooled cryopreserved hepatocytes; beagle dog hepatocytes, 2 μM compound; read-out: Dog Hepatocyte Stability (t1/2). As for the experimental part:
The following procedure was used to determine the stability of test compounds in beagle dog hepatocytes in a 96-well plate format. The test compounds, including the controls, imipramine and 7-ethoxycoumarin, were dissolved at 10 mM in DMSO, followed by further 5-fold dilution with DMSO to 2 mM. Pooled cryopreserved beagle dog hepatocytes were thawed and transferred into complete medium. Cells were gently centrifuged (700 rpm for 5 min) and the pellet rinsed with KHB (Krebs Henseleit buffer). Cells were resuspended, counted using Trypan blue, and adjusted to 1 million cells/mL in KHB buffer. The 2 mM compound stock solutions were diluted 10-fold with acetonitrile, followed by a further 50-fold dilution with KHB buffer. 200 μL of these compound solutions were transferred to 96-well polypropylene assay plates and an equal volume of the hepatocyte solution was added and mixed to initiate the reaction (final assay concentrations were 2 μM compound and 500,000 cells/mL). Assay plates were incubated at 37° C. in 5% CO2 with gentle agitation. 50 μL aliquots were removed at multiple time points out to 180 minutes and quenched with 6 volumes of cold acetonitrile (containing 250 ng/mL of carbutamide and chrysin as internal standards) to terminate the reaction and precipitate protein. Quenched samples were maintained on ice. The quenched samples were centrifuged at 2000×g (3100 rpm) for 10 minutes at 4° C. 50 μL aliquots of the supernatants were removed and diluted with 100 μL Milli-Q water to reduce the % organic content prior to bioanalysis by LC-MS/MS. Peak areas corresponding to the test compound were recorded. The compound remaining was calculated by comparing the peak area at each time point to time zero. Data were analyzed and results were calculated using Microsoft Excel 2010.

Data set [3] can be described thus: Plasma protein binding by equilibrium dialysis. Type of data set: in vitro ADME. The conditions noted are these: both sexes, pH 7.4, pooled human plasma, 4 hours at 37° C., read-out: PPB (%). As for the experimental part:
The following procedure was used to determine the plasma protein binding of a test compound in pooled plasma from human (mixed gender) via equilibrium dialysis in a 96-well plate format. The dialysate compartment was loaded with phosphate-buffered saline (pH 7.4) and the sample side was loaded with plasma spiked with the test compound at a concentration of 10 μM. After loading, samples were covered and incubated for 4 hours at 37° C. After incubation, each compartment was sampled, diluted with acetonitrile/buffer and centrifuged. The supernatants were analyzed by HPLC-MS/MS. The analyte peak areas obtained from HPLC-MS/MS analysis of each sample were used to calculate protein binding according to the following equation (Equation 4):
[formula] where: AREAp=Peak area of analyte in protein matrix; AREAb=Peak area of analyte in buffer.
The amount measured in the plasma compartment included both free and bound drug, while that on the buffer side represented free drug only; the differences were used to calculate the percentage plasma protein bound. Three reference compounds were tested in each assay: acebutolol, quinidine and warfarin.
In general terms: In equilibrium dialysis only unbound substance equilibrates across the membrane.

Sequence of Factor XIa (P03951 388-625): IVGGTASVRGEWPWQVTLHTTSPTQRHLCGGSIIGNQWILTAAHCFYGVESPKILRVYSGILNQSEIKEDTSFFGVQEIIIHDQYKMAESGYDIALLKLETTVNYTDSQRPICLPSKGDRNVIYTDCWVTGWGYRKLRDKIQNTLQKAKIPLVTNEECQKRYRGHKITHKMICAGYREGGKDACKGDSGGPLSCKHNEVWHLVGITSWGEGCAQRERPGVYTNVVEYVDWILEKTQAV
Sequence of Factor XIa (P03951 19-387 partner): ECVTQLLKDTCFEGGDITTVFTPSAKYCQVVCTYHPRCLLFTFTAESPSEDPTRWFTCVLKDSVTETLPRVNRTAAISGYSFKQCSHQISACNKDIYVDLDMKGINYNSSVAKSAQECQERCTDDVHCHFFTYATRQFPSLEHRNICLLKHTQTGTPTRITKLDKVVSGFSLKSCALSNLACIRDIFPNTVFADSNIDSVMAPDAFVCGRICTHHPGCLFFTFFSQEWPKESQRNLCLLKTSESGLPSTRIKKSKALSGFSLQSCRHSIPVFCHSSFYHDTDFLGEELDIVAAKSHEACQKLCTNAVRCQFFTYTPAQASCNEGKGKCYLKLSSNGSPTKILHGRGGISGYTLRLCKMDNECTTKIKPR

What is called IC50 is the concentration needed to halve the response being measured. Turning to `CC[C@@H](NC(=O)N1C(=O)[C@H](Cc2ccnc(N)c2)[C@H]1C(=O)N(C)c1ccn(C)n1)c1ccccc1` [Compound 1-3, (2S,3R)-3-((2-aminopyridin-4-yl)methyl)-N2-(1-methyl-1H-pyrazol-3-yl)-N1-((R)-1-phenylpropyl)-N2-methyl-4-oxoazetidine-1,2-dicarboxamide], the IC50 in data set [1] is under 10 nM. The half-life at 2 μM in data set [2] was over 4 h. In data set [3], the fraction unbound at 4 h, 10 μM was 0.1 to 0.5.
For the compound `CC[C@@H](NC(=O)N1C(=O)[C@H](Cc2ccnc(N)c2)[C@H]1C(=O)N(C)c1ccnn1C)c1cccc(Cl)c1` [Compound 1-4, (2S,3R)-3-((2-aminopyridin-4-yl)methyl)-N2-(1-methyl-1H-pyrazol-5-yl)-N1-((R)-1-(3-chlorophenyl)propyl)-N2-methyl-4-oxoazetidine-1,2-dicarboxamide], the IC50 in data set [1] is under 10 nM. Besides, the half-life at 2 μM in data set [2] is 1.02 to 2 h. In data set [3], the fraction unbound at 4 h, 10 μM fell in the range of 0.1 to 0.5.
Taken in the same sequence, the figures for `CC[C@@H](NC(=O)N1C(=O)[C@H](Cc2ccnc(N)c2)[C@H]1C(=O)N(C)c1cscn1)c1ccccc1` [Compound 1-8, (2S,3R)-3-((2-aminopyridin-4-yl)methyl)-N2-(4-thiazolyl)-N1-((R)-1-phenylpropyl)-N2-methyl-4-oxoazetidine-1,2-dicarboxamide] were under 10 nM, over 4 h and 0.1 to 0.5.
With `CC[C@@H](NC(=O)N1C(=O)[C@H](Cc2ccnc(N)c2)[C@H]1C(=O)N(C)c1cccs1)c1ccccc1` [Compound 1-10, (2S,3R)-3-((2-aminopyridin-4-yl)methyl)-N2-(thiophen-2-yl)-N1-((R)-1-phenylpropyl)-N2-methyl-4-oxoazetidine-1,2-dicarboxamide], in data set [1], the IC50 was under 10 nM. For the same compound, the half-life at 2 μM in data set [2] was under 1 h. In data set [3], the fraction unbound at 4 h, 10 μM was 0.05 to 0.09.
`CC[C@@H](NC(=O)N1C(=O)[C@H](Cc2ccnc(N)c2)[C@H]1C(=O)N(C)c1nccn1C)c1ccccc1` [Compound 1-13, (2S,3R)-3-((2-aminopyridin-4-yl)methyl)-N2-(1-methyl-1H-imidazol-2-yl)-N1-((R)-1-phenylpropyl)-N2-methyl-4-oxoazetidine-1,2-dicarboxamide]: the IC50 in data set [1] was under 10 nM. Also, in data set [2], the half-life at 2 μM was in the range of 2.02 to 4 h. Further, the fraction unbound at 4 h, 10 μM in data set [3] lay within 0.1 to 0.5.
Take `CC[C@@H](NC(=O)N1C(=O)[C@H](Cc2cc(C)nc(N)c2)[C@H]1C(=O)N(C)c1cnn(C)c1)c1cccc(Cl)c1` [Compound 1-15, (2S,3R)-3-((2-amino-6-methylpyridin-4-yl)methyl)-N2-(1-methyl-1H-pyrazol-4-yl)-N1-((R)-1-(3-chlorophenyl)propyl)-N2-methyl-4-oxoazetidine-1,2-dicarboxamide]: in data set [1], the IC50 was 10 to 100 nM. Moreover, the half-life at 2 μM in data set [2] was over 4 h. The fraction unbound at 4 h, 10 μM in data set [3] was in the range of 0.1 to 0.5.
Taken in the same sequence, the figures for `CC[C@@H](NC(=O)N1C(=O)[C@H](Cc2ccnc(N)c2)[C@H]1C(=O)N(C)c1cscn1)c1cccc(Cl)c1` [Compound 1-17, (2S,3R)-3-((2-aminopyridin-4-yl)methyl)-N2-(4-thiazolyl)-N1-((R)-1-(3-chlorophenyl)propyl)-N2-methyl-4-oxoazetidine-1,2-dicarboxamide] were under 10 nM, 1.02 to 2 h and 0.05 to 0.09.
For the compound `CC[C@@H](NC(=O)N1C(=O)[C@H](Cc2ccnc(N)c2)[C@H]1C(=O)N(C)c1cnn(C)c1)c1ccc(C)nc1` [Compound 1-18, (2S,3R)-3-((2-aminopyridin-4-yl)methyl)-N2-(1-methyl-1H-pyrazol-4-yl)-N1-((R)-1-(6-methylpyridin-3-yl)propyl)-N2-methyl-4-oxoazetidine-1,2-dicarboxamide], the half-maximal inhibitory concentration (IC50) in data set [1] lay within 10 to 100 nM. Moreover, the half-life at 2 μM in data set [2] fell in the range of 2.02 to 4 h. In addition, the fraction unbound at 4 h, 10 μM in data set [3] was under 0.5.
In the case of `CC[C@@H](NC(=O)N1C(=O)[C@H](Cc2cc(C)nc(N)c2)[C@H]1C(=O)N(C)c1ccn(C)n1)c1cccc(C)c1` [Compound 1-22, (2S,3R)-3-((2-amino-6-methylpyridin-4-yl)methyl)-N2-(1-methyl-1H-pyrazol-3-yl)-N1-((R)-1-(3-methylphenyl)propyl)-N2-methyl-4-oxoazetidine-1,2-dicarboxamide], in data set [1], the IC50 was under 10 nM. In data set [2], the half-life at 2 μM was 2.02 to 4 h. The fraction unbound at 4 h, 10 μM in data set [3] was in the range of 0.1 to 0.5.
As to `CN(C(=O)[C@@H]1[C@@H](Cc2ccnc(N)c2)C(=O)N1C(=O)N[C@@H](C1CCCCC1)C(F)(F)F)c1ccn(C)n1` [Compound 1-32, (2S,3R)-3-((2-aminopyridin-4-yl)methyl)-N2-(1-methyl-1H-pyrazol-3-yl)-N1-((S)-1-cyclohexyl-2,2,2-trifluoroethyl)-N2-methyl-4-oxoazetidine-1,2-dicarboxamide], in data set [1], the IC50 was under 10 nM. In addition, the half-life at 2 μM in data set [2] is under 1 h. In data set [3], the fraction unbound at 4 h, 10 μM lay within 0.05 to 0.09.
Consider `CC[C@@H](NC(=O)N1C(=O)[C@H](Cc2ccnc(N)c2)[C@H]1C(=O)N(C)c1nccn1C)c1cccc(Cl)c1` [Compound 1-35, (2S,3R)-3-((2-aminopyridin-4-yl)methyl)-N2-(1-methyl-1H-imidazol-2-yl)-N1-((R)-1-(3-chlorophenyl)propyl)-N2-methyl-4-oxoazetidine-1,2-dicarboxamide], for which, in data set [1], the IC50 is under 10 nM. The half-life at 2 μM in data set [2] lay within 1.02 to 2 h. Further, in data set [3], the fraction unbound at 4 h, 10 μM was 0.1 to 0.5.
In the case of `CC[C@@H](NC(=O)N1C(=O)[C@H](Cc2ccnc(NC)c2)[C@H]1C(=O)N(C)c1nccn1C)c1cccc(Cl)c1` [Compound 1-41, (2S,3R)-3-((2-methylaminopyridin-4-yl)methyl)-N2-(1-methyl-1H-imidazol-2-yl)-N1-((R)-1-(3-chlorophenyl)propyl)-N2-methyl-4-oxoazetidine-1,2-dicarboxamide], the IC50 in data set [1] was in the range of 10 to 100 nM. Also, in data set [2], the half-life at 2 μM lay in the range of 1.02 to 2 h. Further, in data set [3], the fraction unbound at 4 h, 10 μM is 0.1 to 0.5.
Taken in the same sequence, the figures for `CC[C@@H](NC(=O)N1C(=O)[C@H](Cc2cc(C)nc(N)c2)[C@H]1C(=O)N(C)c1nccn1C)c1cccc(Cl)c1` [Compound 1-43, (2S,3R)-3-((2-amino-6-methylpyridin-4-yl)methyl)-N2-(1-methyl-1H-imidazol-2-yl)-N1-((R)-1-(3-chlorophenyl)propyl)-N2-methyl-4-oxoazetidine-1,2-dicarboxamide] were under 10 nM, 2.02 to 4 h and 0.1 to 0.5.
Take `CC[C@@H](NC(=O)N1C(=O)[C@H](Cc2cc(C)nc(NC)c2)[C@H]1C(=O)N(C)c1nccn1C)c1ccccc1` [Compound 1-45, (2S,3R)-3-((2-methylamino-6-methylpyridin-4-yl)methyl)-N2-(1-methyl-1H-imidazol-2-yl)-N1-((R)-1-phenylpropyl)-N2-methyl-4-oxoazetidine-1,2-dicarboxamide]: the IC50 in data set [1] was in the range of 10 to 100 nM. In addition, in data set [2], the half-life at 2 μM is 2.02 to 4 h. Further, in data set [3], the fraction unbound at 4 h, 10 μM was in the range of 0.1 to 0.5.
The like results for `CC[C@@H](NC(=O)N1C(=O)[C@H](Cc2cc(C)nc(NC)c2)[C@H]1C(=O)N(C)c1nccn1C)c1cccc(Cl)c1` [Compound 1-46, (2S,3R)-3-((2-methylamino-6-methylpyridin-4-yl)methyl)-N2-(1-methyl-1H-imidazol-2-yl)-N1-((R)-1-(3-chlorophenyl)propyl)-N2-methyl-4-oxoazetidine-1,2-dicarboxamide] were, in that order, under 10 nM, 1.02 to 2 h and 0.05 to 0.09.
Regarding “(2S,3R)-3-((2-amino-6-methylpyridin-4-yl)methyl)-N2-(1-methyl-1H-imidazol-2-yl)-N1-((R)-1-(3-fluorophenyl)propyl)-N2-methyl-4-oxoazetidine-1,2-dicarboxamide [Compound 1-120]”, the concentration for half-maximal inhibition (IC50) in data set [1] is under 10 nM.
